Converted amounts (≈) assume the structure as drawn.
Assay: Solubility of active compounds in distilled water

In the case of `Fc1ccc([C@]2(Cn3cncn3)O[C@H]2c2ccccc2Cl)cc1` (racemic) [epoxyconazole], the “Solubility in distilled water” value was 6.63 µg/mL (≈ 20.1 µM).
